Experimental data taken from ChEMBL document CHEMBL1201862, “PubChem BioAssay data set” (2004).
The source made the active and inactive calls.

How the values were obtained:
[1] = molecular target: 26S proteasome non-ATPase regulatory subunit 14 (Homo sapiens, UniProt O00487); experiment: inhibition of proteasome subunit RPN11 – biochemical, fluorescence polarization, uHTS hits, confirmation (AID 602368); type: functional
[2] = molecular target: 72 kDa type IV collagenase (Homo sapiens, UniProt P08253); experiment: Dose Response validation of uHTS RPN11 inhibitor hits using a MMP-2 Fluorescence assay.; type: functional
[3] = molecular target: Multidrug resistance protein CDR2 (Candida albicans (strain SC5314 / ATCC MYA-2876) (Yeast), UniProt P78595); experiment: CaCDR2 efflux pump inhibitors in yeast, dose response, S. cerevisiae AD1-8u, singleplex, Cherry Pick1 hits (AID 588604); type: functional
Chain of Multidrug resistance protein CDR2 (P78595 whole entry): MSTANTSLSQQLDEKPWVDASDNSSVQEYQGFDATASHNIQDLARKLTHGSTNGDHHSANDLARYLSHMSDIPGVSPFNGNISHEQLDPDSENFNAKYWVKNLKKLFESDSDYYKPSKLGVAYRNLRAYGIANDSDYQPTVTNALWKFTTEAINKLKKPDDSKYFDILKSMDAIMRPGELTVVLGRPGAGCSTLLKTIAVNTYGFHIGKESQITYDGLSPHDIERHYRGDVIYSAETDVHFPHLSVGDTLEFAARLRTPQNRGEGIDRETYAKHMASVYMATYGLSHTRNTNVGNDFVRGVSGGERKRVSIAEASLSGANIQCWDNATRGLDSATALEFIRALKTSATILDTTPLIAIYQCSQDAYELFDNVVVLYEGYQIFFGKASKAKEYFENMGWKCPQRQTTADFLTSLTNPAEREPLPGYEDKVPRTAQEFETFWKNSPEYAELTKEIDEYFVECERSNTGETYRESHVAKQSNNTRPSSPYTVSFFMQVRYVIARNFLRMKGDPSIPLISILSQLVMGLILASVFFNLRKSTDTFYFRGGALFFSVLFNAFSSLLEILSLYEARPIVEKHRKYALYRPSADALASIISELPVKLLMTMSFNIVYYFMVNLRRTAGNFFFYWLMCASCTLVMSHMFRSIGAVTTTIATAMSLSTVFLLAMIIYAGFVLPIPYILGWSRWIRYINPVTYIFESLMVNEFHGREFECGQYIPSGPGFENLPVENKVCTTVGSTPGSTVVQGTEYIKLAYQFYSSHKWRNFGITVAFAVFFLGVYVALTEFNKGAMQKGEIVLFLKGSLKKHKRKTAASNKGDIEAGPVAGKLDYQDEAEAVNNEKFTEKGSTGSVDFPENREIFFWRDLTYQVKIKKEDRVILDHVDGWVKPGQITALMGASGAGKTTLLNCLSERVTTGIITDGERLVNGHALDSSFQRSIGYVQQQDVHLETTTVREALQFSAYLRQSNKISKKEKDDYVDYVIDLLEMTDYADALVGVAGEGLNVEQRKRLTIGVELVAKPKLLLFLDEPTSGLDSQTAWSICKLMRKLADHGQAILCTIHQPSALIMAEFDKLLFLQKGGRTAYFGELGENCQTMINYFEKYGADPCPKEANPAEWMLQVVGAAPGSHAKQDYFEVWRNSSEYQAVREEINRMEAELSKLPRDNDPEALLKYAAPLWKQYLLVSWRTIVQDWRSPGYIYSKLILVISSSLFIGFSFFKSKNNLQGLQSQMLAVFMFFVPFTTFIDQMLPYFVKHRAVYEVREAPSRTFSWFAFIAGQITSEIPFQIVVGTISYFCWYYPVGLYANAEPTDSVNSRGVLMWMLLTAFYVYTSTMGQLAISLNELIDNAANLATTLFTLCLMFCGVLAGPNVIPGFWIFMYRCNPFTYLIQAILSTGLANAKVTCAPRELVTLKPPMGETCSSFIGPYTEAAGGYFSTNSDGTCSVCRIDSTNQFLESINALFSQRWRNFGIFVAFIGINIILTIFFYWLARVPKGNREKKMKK

Prothrombin = Prothrombin (Bos taurus, UniProt P00735); experiment: thrombin inhibition, dose response, biochemical, fluorescence polarization, uHTS hits (AID 602369); type: functional
[4] = molecular target: T1, Histone-lysine N-methyltransferase NSD2 (Homo sapiens, UniProt O96028); type: biochemical
T1 sequence (O96028 whole entry): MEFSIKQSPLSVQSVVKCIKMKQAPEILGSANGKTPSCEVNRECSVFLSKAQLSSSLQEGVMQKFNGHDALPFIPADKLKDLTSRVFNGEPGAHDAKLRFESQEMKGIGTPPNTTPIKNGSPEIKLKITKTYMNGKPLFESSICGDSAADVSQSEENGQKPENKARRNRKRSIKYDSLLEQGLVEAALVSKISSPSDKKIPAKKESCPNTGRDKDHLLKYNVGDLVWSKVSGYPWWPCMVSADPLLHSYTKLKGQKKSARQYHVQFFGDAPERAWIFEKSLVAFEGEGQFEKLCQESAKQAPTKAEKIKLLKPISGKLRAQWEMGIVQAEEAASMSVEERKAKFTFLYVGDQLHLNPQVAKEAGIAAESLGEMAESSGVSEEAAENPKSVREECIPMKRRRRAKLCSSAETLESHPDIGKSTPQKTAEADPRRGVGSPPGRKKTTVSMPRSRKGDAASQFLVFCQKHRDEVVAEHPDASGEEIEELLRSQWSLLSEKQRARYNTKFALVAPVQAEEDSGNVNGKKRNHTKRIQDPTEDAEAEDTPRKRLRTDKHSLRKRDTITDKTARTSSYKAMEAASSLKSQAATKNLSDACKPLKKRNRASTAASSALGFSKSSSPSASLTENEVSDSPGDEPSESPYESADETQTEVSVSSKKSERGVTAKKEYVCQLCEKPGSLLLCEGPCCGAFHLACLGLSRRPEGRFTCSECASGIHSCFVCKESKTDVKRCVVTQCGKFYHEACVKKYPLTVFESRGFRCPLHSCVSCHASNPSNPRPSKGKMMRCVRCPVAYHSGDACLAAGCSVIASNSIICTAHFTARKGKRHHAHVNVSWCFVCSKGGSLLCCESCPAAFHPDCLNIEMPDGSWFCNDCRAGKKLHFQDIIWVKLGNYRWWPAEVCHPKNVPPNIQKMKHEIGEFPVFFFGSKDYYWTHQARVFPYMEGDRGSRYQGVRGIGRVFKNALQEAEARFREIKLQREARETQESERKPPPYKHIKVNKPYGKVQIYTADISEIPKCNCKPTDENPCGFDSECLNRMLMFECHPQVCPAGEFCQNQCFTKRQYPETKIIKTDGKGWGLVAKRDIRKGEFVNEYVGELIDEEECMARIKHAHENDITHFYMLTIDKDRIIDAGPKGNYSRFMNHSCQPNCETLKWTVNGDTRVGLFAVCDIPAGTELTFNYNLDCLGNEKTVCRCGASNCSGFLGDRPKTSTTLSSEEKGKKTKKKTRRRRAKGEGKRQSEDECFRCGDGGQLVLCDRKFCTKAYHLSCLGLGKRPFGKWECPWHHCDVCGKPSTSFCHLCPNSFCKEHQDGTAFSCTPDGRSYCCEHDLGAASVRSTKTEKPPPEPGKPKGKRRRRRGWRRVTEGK

[5] = molecular target: Intestinal-type alkaline phosphatase (Mus musculus, UniProt P24822); experiment: mouse intestinal alkaline phosphatase activators, dose response, biochemical, luminescence, uHTS hits (AID 488783); type: functional
[6] = molecular target: T2, Alkaline phosphatase, tissue-nonspecific isozyme (Homo sapiens, UniProt P05186); experiment: TNAP enzyme activators, dose response, selectivity assay for mouse IAP activator project, biochemical, TNAP isozyme, mouse IAP uHTS hits (AID 488880); type: functional
T2 sequence (P05186 whole entry): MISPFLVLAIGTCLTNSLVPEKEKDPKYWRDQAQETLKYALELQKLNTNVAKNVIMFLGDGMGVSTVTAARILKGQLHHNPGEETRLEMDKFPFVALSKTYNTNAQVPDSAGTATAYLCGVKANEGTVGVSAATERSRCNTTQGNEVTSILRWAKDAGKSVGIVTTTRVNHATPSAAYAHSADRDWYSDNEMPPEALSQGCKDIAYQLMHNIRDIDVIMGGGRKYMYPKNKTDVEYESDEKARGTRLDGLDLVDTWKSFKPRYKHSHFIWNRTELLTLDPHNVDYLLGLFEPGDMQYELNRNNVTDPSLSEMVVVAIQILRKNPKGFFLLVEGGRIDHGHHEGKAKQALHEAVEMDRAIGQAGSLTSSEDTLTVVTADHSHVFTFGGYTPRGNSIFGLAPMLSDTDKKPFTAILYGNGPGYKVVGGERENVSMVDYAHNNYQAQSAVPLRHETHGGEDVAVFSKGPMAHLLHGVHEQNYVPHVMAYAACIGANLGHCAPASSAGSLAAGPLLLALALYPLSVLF

Large T antigen = Large T antigen (Simian virus 40, UniProt P03070); type: functional, Betapolyomavirus macacae;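 note: Confirmatory-stage PubChem screen for compounds that inhibit SV40 T antigen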
Chain of Large T antigen (P03070 whole entry): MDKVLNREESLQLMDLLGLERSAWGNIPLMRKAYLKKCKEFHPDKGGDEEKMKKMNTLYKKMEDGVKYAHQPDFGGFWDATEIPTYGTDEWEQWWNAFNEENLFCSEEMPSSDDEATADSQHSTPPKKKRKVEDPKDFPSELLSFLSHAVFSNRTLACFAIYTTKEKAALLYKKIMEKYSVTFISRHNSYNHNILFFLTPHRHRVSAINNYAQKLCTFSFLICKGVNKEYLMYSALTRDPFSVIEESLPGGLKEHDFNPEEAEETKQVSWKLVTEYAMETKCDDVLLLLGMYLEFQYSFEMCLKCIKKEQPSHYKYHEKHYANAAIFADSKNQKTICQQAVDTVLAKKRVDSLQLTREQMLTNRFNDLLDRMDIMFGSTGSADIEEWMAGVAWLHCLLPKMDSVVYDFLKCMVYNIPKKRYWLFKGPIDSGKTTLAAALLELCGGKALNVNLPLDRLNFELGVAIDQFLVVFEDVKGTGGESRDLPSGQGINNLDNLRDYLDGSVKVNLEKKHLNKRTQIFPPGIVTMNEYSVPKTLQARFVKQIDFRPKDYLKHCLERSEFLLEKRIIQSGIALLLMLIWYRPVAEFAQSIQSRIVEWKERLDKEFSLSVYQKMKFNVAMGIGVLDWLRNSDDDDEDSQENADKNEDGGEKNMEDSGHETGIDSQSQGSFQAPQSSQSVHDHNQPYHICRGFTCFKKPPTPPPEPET

[7] = molecular target: FAD-linked sulfhydryl oxidase ALR (Homo sapiens, UniProt P55789); experiment: inhibitors of human ALR sulfhydryl oxidase, dose response, biochemical, H2O2 detection, luminescence, cherry-pick (AID 493248)
Chain of FAD-linked sulfhydryl oxidase ALR (P55789 whole entry): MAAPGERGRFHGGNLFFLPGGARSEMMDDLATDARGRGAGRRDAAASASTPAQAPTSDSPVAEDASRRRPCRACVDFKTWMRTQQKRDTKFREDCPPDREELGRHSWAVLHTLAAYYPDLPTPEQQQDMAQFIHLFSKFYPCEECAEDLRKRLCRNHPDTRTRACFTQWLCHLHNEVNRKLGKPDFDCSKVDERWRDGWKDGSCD

[8] = molecular target: Intestinal-type alkaline phosphatase (Homo sapiens, UniProt P09923); experiment: activation of human intestinal alkaline phosphatase – biochemical, dose response (AID 488873); type: functional
Chain of Intestinal-type alkaline phosphatase (Homo sapiens, UniProt P09923) (P09923 whole entry): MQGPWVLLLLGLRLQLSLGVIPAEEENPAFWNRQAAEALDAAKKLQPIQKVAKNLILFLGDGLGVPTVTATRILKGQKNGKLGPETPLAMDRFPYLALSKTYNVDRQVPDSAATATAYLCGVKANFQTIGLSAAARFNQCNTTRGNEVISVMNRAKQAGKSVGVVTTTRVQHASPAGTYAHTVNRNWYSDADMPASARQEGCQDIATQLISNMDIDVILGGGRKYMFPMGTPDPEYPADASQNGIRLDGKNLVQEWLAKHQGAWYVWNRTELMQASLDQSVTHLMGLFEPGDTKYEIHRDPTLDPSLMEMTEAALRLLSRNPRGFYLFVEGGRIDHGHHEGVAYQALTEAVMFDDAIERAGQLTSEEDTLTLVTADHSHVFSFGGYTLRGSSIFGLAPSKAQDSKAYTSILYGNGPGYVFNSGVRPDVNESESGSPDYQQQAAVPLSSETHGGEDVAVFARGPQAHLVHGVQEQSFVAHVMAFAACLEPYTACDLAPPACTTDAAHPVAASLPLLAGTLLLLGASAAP

[9] = molecular target: Benomyl/methotrexate resistance protein (Candida albicans, UniProt P28873); experiment: CaMdr1 efflux pump inhibitor potency, dose response, singleplex, Cherry Pick1 hits (AID 588608); type: functional
[10] = molecular target: Melanin-concentrating hormone receptor 1 (Homo sapiens, UniProt Q99705); experiment: Late-stage fluorescence-based counterscreen for antagonists of the G-protein coupled receptor 7 (GPR7): cell-based dose response assay to identify antagonists of the melanin-concentrating hormone receptor 1 (MCHR1) Set 6.; type: functional
[11] = molecular target: Neuropeptides B/W receptor type 1 (Homo sapiens, UniProt P48145); experiment: GPR7 antagonist potency, late-stage follow-up, cell-based, fluorescence, dose response, set 6 (AID 588583); type: functional
[12] = THP-1 cell cytotoxicity, cytotoxicity control, set 5 (AID 588443); type: functional
[13] = molecular target: Cyclin-dependent kinase 2 (Homo sapiens, UniProt P24941); type: functional;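 note: CDK2 measured as one member of a broad kinome profiling panel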
[14] = molecular target: Mitogen-activated protein kinase kinase kinase kinase 4 (Homo sapiens, UniProt O95819); type: functional
[15] = molecular target: Glycogen synthase kinase-3 beta (Homo sapiens, UniProt P49841); type: functional;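 note: value comes from a broad kinome profiling panel, with GSK3B as the panel member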
Chain of Glycogen synthase kinase-3 beta (P49841 whole entry): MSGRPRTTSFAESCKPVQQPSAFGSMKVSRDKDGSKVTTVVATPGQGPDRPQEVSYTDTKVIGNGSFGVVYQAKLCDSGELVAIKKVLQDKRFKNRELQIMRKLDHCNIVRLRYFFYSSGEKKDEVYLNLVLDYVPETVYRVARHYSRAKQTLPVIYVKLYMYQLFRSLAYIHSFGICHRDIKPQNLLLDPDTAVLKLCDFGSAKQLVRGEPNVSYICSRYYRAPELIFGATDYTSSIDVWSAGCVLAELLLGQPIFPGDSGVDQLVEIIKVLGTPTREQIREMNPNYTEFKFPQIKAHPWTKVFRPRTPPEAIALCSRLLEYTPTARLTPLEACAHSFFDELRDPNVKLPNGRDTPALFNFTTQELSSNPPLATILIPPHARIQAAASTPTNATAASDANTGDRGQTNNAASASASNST

[16] = molecular target: Serine/threonine-protein kinase pim-1 (Homo sapiens, UniProt P11309); type: functional
Chain of Serine/threonine-protein kinase pim-1 (P11309 whole entry): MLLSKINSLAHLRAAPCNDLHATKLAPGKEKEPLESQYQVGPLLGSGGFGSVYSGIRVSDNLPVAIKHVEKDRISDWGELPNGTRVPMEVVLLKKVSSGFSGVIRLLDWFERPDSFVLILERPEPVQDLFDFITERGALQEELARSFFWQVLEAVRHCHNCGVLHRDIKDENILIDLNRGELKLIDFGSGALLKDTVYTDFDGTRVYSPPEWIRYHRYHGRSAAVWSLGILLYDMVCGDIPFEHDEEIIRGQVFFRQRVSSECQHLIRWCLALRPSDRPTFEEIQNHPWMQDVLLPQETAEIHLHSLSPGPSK

[17] = molecular target: Homeodomain-interacting protein kinase 2 (Homo sapiens, UniProt Q9H2X6); type: functional;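 note: measured within a kinome-wide kinase profiling panel, HIPK2 being one panel member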
[18] = molecular target: Dual specificity protein kinase CLK4 (Homo sapiens, UniProt Q9HAZ1); type: functional
Chain of Dual specificity protein kinase CLK4 (Q9HAZ1 whole entry): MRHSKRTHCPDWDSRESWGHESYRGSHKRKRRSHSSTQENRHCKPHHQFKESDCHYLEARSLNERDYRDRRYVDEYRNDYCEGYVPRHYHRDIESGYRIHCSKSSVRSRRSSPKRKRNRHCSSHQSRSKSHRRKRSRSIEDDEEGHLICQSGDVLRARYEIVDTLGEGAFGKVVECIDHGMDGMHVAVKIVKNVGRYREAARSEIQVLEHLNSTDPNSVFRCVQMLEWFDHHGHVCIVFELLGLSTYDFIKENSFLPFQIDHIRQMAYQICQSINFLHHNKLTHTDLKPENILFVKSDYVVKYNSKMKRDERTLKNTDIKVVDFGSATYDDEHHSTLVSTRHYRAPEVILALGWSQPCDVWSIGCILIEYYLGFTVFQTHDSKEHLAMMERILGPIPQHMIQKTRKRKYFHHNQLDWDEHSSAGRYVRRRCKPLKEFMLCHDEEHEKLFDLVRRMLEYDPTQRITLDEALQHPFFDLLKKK

[19] = molecular target: Interleukin-1 receptor-associated kinase 4 (Homo sapiens, UniProt Q9NWZ3); type: functional
[20] = molecular target: Cell division cycle 7-related protein kinase (Homo sapiens, UniProt O00311); type: functional;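 note: value obtained from a kinome-wide kinase panel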
[21] = molecular target: cAMP-dependent protein kinase catalytic subunit alpha (Homo sapiens, UniProt P17612); type: functional
[22] = molecular target: Serine/threonine-protein kinase Chk1 (Homo sapiens, UniProt O14757); type: functional;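 note: measured as one member of a kinome-wide kinase profiling panel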
[23] = molecular target: Cyclin-dependent kinase 1 (Homo sapiens, UniProt P06493); type: functional;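 note: Kinome-wide panel profiling, with the target listed as panel member CDC2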
[24] = molecular target: Ribosomal protein S6 kinase beta-1 (Homo sapiens, UniProt P23443); type: functional;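 note: measured as one member of a kinome-wide profiling panel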
[25] = molecular target: RAC-gamma serine/threonine-protein kinase (Homo sapiens, UniProt Q9Y243); type: functional
[26] = molecular target: Serine/threonine-protein kinase MRCK alpha (Homo sapiens, UniProt Q5VT25); type: functional
[27] = molecular target: 5'-AMP-activated protein kinase catalytic subunit alpha-1 (Homo sapiens, UniProt Q13131); type: functional
[28] = molecular target: MAP kinase-activated protein kinase 2 (Homo sapiens, UniProt P49137); type: functional;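 note: measured as one member of a kinome-wide kinase panel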
Ephrin type-A receptor 2 = Ephrin type-A receptor 2 (Homo sapiens, UniProt P29317); type: functional;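 note: EPHA2 tested as one member of a kinome-wide kinase panel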
[29] = molecular target: Protein kinase C gamma type (Homo sapiens, UniProt P05129); type: functional
[30] = molecular target: Ribosomal protein S6 kinase alpha-3 (Homo sapiens, UniProt P51812); type: functional;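 note: measured within a kinome-wide profiling panel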
[31] = molecular target: Serine/threonine-protein kinase Chk2 (Homo sapiens, UniProt O96017); type: functional;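 note: CHEK2 entry within a kinome-wide screening panel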
Chain of Serine/threonine-protein kinase Chk2 (O96017 whole entry): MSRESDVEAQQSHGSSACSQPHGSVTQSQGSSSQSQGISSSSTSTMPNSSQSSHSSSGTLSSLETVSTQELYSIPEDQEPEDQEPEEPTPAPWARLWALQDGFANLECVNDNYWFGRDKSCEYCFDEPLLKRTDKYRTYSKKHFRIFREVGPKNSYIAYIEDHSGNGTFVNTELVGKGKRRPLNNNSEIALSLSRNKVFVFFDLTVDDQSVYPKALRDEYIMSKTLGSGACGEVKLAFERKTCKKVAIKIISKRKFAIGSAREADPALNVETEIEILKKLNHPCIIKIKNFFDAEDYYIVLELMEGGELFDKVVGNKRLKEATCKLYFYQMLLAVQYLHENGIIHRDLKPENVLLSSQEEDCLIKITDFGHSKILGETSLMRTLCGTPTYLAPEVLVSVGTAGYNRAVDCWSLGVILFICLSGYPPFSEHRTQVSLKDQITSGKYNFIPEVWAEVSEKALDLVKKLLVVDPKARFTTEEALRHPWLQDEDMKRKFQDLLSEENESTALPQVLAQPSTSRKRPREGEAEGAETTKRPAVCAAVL

[32] = molecular target: Serine/threonine-protein kinase PAK 4 (Homo sapiens, UniProt O96013); type: functional;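 note: value obtained within a kinome profiling panel in which PAK4 was one of the panel members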
[33] = molecular target: Serine/threonine-protein kinase PLK1 (Homo sapiens, UniProt P53350); type: functional;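 note: PLK1 measured as one member of a kinome-wide profiling panel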
Aurora kinase A = Aurora kinase A (Homo sapiens, UniProt O14965); type: functional;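 note: value from the Navigating the Kinome kinase panel profiling, panel entry STK6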
[34] = molecular target: Protein kinase C delta type (Homo sapiens, UniProt Q05655); type: functional
[35] = molecular target: Fibroblast growth factor receptor 1 (Homo sapiens, UniProt P11362); type: functional
[36] = molecular target: RAC-alpha serine/threonine-protein kinase (Homo sapiens, UniProt P31749); type: functional;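 note: AKT1 affinity measured as one member of a kinome-wide kinase profiling panel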
[37] = molecular target: MAP/microtubule affinity-regulating kinase 3 (Homo sapiens, UniProt P27448); type: functional;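 note: MARK3 affinity measured as one member of a kinome panel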
[38] = molecular target: Serine/threonine-protein kinase PLK3 (Homo sapiens, UniProt Q9H4B4); type: functional
[39] = molecular target: Casein kinase II subunit alpha (Homo sapiens, UniProt P68400); type: functional
[40] = molecular target: Protein kinase C zeta type (Homo sapiens, UniProt Q05513); type: functional;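 note: measured as one member of a broad kinase profiling panel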

Chain of 26S proteasome non-ATPase regulatory subunit 14 (O00487 whole entry): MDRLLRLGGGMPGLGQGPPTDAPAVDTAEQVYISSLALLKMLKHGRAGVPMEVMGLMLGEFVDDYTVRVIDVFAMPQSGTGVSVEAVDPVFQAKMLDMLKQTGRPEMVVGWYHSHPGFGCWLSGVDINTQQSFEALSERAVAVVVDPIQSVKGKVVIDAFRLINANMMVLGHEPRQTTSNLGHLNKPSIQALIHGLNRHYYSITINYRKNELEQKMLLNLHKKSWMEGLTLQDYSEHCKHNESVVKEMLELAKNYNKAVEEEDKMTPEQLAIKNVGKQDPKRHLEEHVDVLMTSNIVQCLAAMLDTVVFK

Structure (SMILES): O=C(O)C(c1ccccc1)N1C(=O)/C(=C\c2ccc(O)c(O)c2)SC1=S (stereo not drawn)
- IC50 [1]: 26.3 µM (active)
- IC50 [2]: 39.7 µM (active)
- EC50 [3]: 4.78 µM (active)
- IC50 (Prothrombin): 30.7 µM (active)
- AC50 [4]: 4.05 µM (active)
- EC50 [5]: 61 µM (active)
- EC50 [6]: 24.1 µM (active)
- IC50 (Large T antigen): 7.85 µM (active)
- AC50 [7]: 0.208 µM (active)
- EC50 [8]: 59.1 µM (active)
- EC50 [9]: 2.72 µM (active)

Structure (SMILES): CCOc1ccc(C(C#N)c2c(Cl)cnn(Cc3cccc4ccccc34)c2=O)c(F)c1F (stereo not drawn)
- IC50 [10]: 0.601 µM (active)
- IC50 [11]: 0.601 µM (active)

Structure (SMILES): CC1CC(C)CN(C(=O)C2CCC(CNc3c(N4CCCCC4)c(=O)c3=O)CC2)C1 (stereo not drawn)
- CC50 [12]: > 30 µM (inconclusive)

Structure (SMILES): O=c1cc(-c2cccc(F)c2)[nH]c2c(-c3ccc(F)cc3)cnn12
- Ki [13]: > 7.94 µM (inactive)
- Ki [14]: > 10 µM (inactive)
- Ki [15]: 2 µM (active)
- Ki [16]: 0.126 µM (active)
- Ki [17]: 0.501 µM (active)
- Ki [18]: 0.158 µM (active)
- Ki [19]: > 10 µM (inactive)
- Ki [20]: 0.0631 µM (active)
- Ki [21]: > 7.94 µM (inactive)

Structure (SMILES): O=C1NC(=O)C(Nc2ccccc2)=C1Cl
- Ki [22]: 12.6 µM (active)
- Ki [23]: > 20 µM (inactive)
- Ki [24]: > 15.8 µM (inactive)
- Ki [25]: > 25.1 µM (inactive)
- Ki [26]: > 25.1 µM (inactive)
- Ki [27]: > 25.1 µM (inactive)
- Ki [28]: > 20 µM (inactive)
- Ki (Ephrin type-A receptor 2): > 20 µM (inactive)
- Ki [13]: > 20 µM (inactive)
- Ki [29]: > 20 µM (inactive)
- Ki [30]: > 20 µM (inactive)
- Ki [15]: 1 µM (active)
- Ki [16]: 15.8 µM (active)
- Ki [31]: > 25.1 µM (inactive)
- Ki [32]: > 12.6 µM (inactive)
- Ki [33]: > 20 µM (inactive)
- Ki (Aurora kinase A): 15.8 µM (active)
- Ki [34]: > 20 µM (inactive)
- Ki [35]: > 12.6 µM (inactive)
- Ki [36]: > 20 µM (inactive)
- Ki [37]: > 15.8 µM (inactive)
- Ki [38]: > 20 µM (inactive)
- Ki [39]: > 15.8 µM (inactive)
- Ki [21]: > 20 µM (inactive)
- Ki [40]: > 20 µM (inactive)
